Experiments:
Test in all cases: -log10 GI50 (growth inhibition 50%) (-log10(M)); higher = more potent growth inhibition
LY2 = test system: LY2
Method in brief: (§1)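 Breast cancer cell lines were treated with each compound for 72 hours at nine doses in 1:5 serial dilution, in triplicate, and luminescence was read against a time-zero plate. A Gompertz curve was fitted to the dose-response data by nonlinear least squares to obtain GI50, the molar concentration giving the set level of growth inhibition, which is reported as its negative logarithm. The logarithm is base 10, and values equal to the top dose carry a < qualifier.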

T47D_KBluc = test system: T47D_KBluc
Method in brief: as §1

BT474 = test system: BT474
Method in brief: as §1

MCF12A = test system: MCF12A
Method in brief: as §1

SUM159PT = test system: SUM159PT
Method in brief: as §1

HCC1419 = test system: HCC1419
Method in brief: as §1

MDAMB231 = test system: MDAMB231
Method in brief: as §1

MDAMB361 = test system: MDAMB361
Method in brief: as §1

SUM52PE = test system: SUM52PE
Method in brief: as §1

184B5 = test system: 184B5
Method in brief: as §1

HCC2185 = test system: HCC2185
Method in brief: as §1

BT549 = test system: BT549
Method in brief: as §1

SUM1315MO2 = test system: SUM1315MO2
Method in brief: as §1

600MPE = test system: 600MPE
Method in brief: as §1

MDAMB415 = test system: MDAMB415
Method in brief: as §1

HCC1395 = test system: HCC1395
Method in brief: as §1

HCC1569 = test system: HCC1569
Method in brief: as §1

SUM229PE = test system: SUM229PE
Method in brief: as §1

AU565 = test system: AU565
Method in brief: as §1

SUM185PE = test system: SUM185PE
Method in brief: as §1

SMILES	-log10 GI50 (LY2)	-log10 GI50 (T47D_KBluc)	-log10 GI50 (BT474)	-log10 GI50 (MCF12A)	-log10 GI50 (SUM159PT)	-log10 GI50 (HCC1419)	-log10 GI50 (MDAMB231)	-log10 GI50 (MDAMB361)	-log10 GI50 (SUM52PE)	-log10 GI50 (184B5)	-log10 GI50 (HCC2185)	-log10 GI50 (BT549)	-log10 GI50 (SUM1315MO2)	-log10 GI50 (600MPE)	-log10 GI50 (MDAMB415)	-log10 GI50 (HCC1395)	-log10 GI50 (HCC1569)	-log10 GI50 (SUM229PE)	-log10 GI50 (AU565)	-log10 GI50 (SUM185PE)
Cn1cnc2c(F)c(Nc3ccc(Br)cc3Cl)c(C(=O)NOCCO)cc21 [AZD6244]	< 4.3	< 4.3	< 4.3	6.69	6.66	4.75	< 4.3	< 4.3	5.01	6.9	< 4.3	< 4.3	5.57	6.24	4.96	4.42	< 4.3	7.13	< 4.3	< 4.3
O=c1[nH]c2ccccc2n1C1CCN(Cc2ccc(-c3[nH]c4cc5ncnc5cc4nc3-c3ccccc3)cc2)CC1 [Akt inhibitor VIII]	5.85	5.31	6.08	5.01	5.12	6.03	4.82	6.06	5.85	5.56	5.86	5.08	5.34	5.15	5.7	5.25	5.07	4.94	5.61	5.95
CC(C)C[C@H](NC(=O)[C@H](Cc1ccccc1)NC(=O)c1cnccn1)B(O)O [Bortezomib]	6.46	6.52	8.24	7.39	8.14	8.86	7.66	5.54	8.28	8.33	8.35	8.21	7.75	6.85	7.4	8.15	8.12	7.48	8.32	8.27
CCN(CC)C(=S)SSC(=S)N(CC)CC [Disulfiram]	5.01	7	< 4.18	4.97	6.65	< 4.18	5.85	6.56	4.53	4.93	< 4.18	6.89	6.36	7.1	4.89	< 4.18	< 4.18	4.5	6.84	< 4.18
CC(=O)O[C@@]12CO[C@@H]1C[C@H](O)[C@@]1(C)C(=O)[C@H](O)C3=C(C)[C@@H](OC(=O)[C@H](O)[C@@H](NC(=O)OC(C)(C)C)c4ccccc4)C[C@@](O)([C@@H](OC(=O)c4ccccc4)[C@H]21)C3(C)C [Docetaxel]	8.2	7.93	8.2	8.59	8.77	7.8	8.66	7.92	8.67	8.39	8.52	8.46	8.71	7.61	8.48	8.24	8.12	7.94	8.3	6.4
C#Cc1cccc(Nc2ncnc3cc(OCCOC)c(OCCOC)cc23)c1 [Erlotinib]	< 4.18	< 4.18	4.98	6.27	4.93	5.2	4.33	< 4.18	4.98	6.32	4.71	4.39	5.03	4.3	< 4.18	4.53	4.78	4.95	4.93	< 4.18
COc1cc([C@@H]2c3cc4c(cc3[C@@H](O[C@@H]3O[C@@H]5CO[C@@H](C)O[C@H]5[C@H](O)[C@H]3O)[C@H]3COC(=O)[C@H]23)OCO4)cc(OC)c1O [Etoposide]	< 3.48	5.79	4.63	6.44	6.11	4.18	5.69	4.85	5.59	5.06	5.11	5.89	6.61	5.26	4.56	5.53	4.2	6.04	6.2	5.31
Cc1ccc(NC(=O)c2ccc(CN3CCN(C)CC3)cc2)cc1Nc1nccc(-c2cccnc2)n1 [Imatinib]	4.65	4.67	4.52	4.37	4.75	4.74	4.82	4.57	4.65	4.63	4.82	4.45	4.63	4.62	4.64	4.77	4.75	5.27	4.72	4.91
Cc1ccc(C(=O)N(CCCN)[C@@H](c2nc3cc(Cl)ccc3c(=O)n2Cc2ccccc2)C(C)C)cc1 [Ispinesib]	6.06	6.79	7.29	7.25	7.33	5.18	7.5	7.46	7.54	6.05	7.53	7.34	7.39	7.69	7.05	7.64	6.8	7.48	7.65	6.96
C/C(=C\c1csc(C)n1)[C@@H]1C[C@@H]2O[C@]2(C)CCC[C@H](C)[C@H](O)[C@@H](C)C(=O)C(C)(C)[C@@H](O)CC(=O)N1 [Ixabepilone]	8.22	7.61	8.42	8.13	8.16	4.93	9.34	8.64	9.53	6.76	8.32	8.26	8.22	8.53	8.41	7.96	6.55	8.72	8.42	8.07
C[C@]12O[C@H](C[C@]1(O)CO)n1c3ccccc3c3c4c(c5c6ccccc6n2c5c31)CNC4=O [Lestaurtinib]	6.6	5.17	6.61	6.33	6.55	5.94	6.14	6.45	6.87	6.49	5.52	6.19	7.45	5.77	6.46	6.91	6.19	6.48	6.07	7.2
CC(C)C[C@@H](C=O)NC(=O)[C@H](CC(C)C)NC(=O)[C@H](CC(C)C)NC(=O)OCc1ccccc1 [MG-132]	6.49	6.77	6.75	7.32	7.27	6.8	6.59	6.62	7.12	7.79	6.66	7.04	6.92	6.3	7.08	6.64	6.68	6.98	7.05	7.01
NS(=O)(=O)OC[C@@H]1C[C@@H](n2ccc3c(N[C@H]4CCc5ccccc54)ncnc32)C[C@@H]1O [MLN4924]	7	6.71	6.24	7.04	6.31	6.68	7.03	7.03	6.41	6.93	5.62	6.54	5.67	6.49	6.95	5.73	4.86	6.59	6.74	7.27
COC(=O)Nc1nc2cc(C(=O)c3ccccc3)ccc2[nH]1 [Mebendazole]	6.32	4.58	6.5	5.74	6.69	4.72	6.46	6.24	6.85	< 4.18	< 4.18	6.3	< 4.18	5	6.28	6.33	5.31	5.68	6.96	6.3
CN(Cc1cnc2nc(N)nc(N)c2n1)c1ccc(C(=O)N[C@@H](CCC(=O)O)C(=O)O)cc1 [Methotrexate]	7.47	6.57	< 3.48	5.22	< 3.48	7.24	< 3.48	6.8	< 3.48	7.37	< 3.48	< 3.48	< 3.48	5.39	< 3.48	< 3.48	< 3.48	< 3.48	5.36	< 3.48
Cc1c(O)cccc1C(=O)N[C@@H](CSc1ccccc1)[C@H](O)CN1C[C@H]2CCCC[C@H]2C[C@H]1C(=O)NC(C)(C)C [Nelfinavir]	5.05	< 4.48	4.9	4.64	4.76	5.66	4.91	4.97	4.75	5.33	< 4.48	4.99	< 4.48	5.05	5.25	< 4.48	< 4.48	4.84	< 4.48	5.24
COc1ccc(C2=N[C@@H](c3ccc(Cl)cc3)[C@@H](c3ccc(Cl)cc3)N2C(=O)N2CCNC(=O)C2)c(OC(C)C)c1 [Nutlin 3a]	5.29	4.5	4.8	5.82	4.78	< 4.18	< 4.18	4.18	4.74	5.3	4.81	4.37	4.75	4.81	4.46	4.65	4.43	4.63	4.79	4.54
O=C(/C=C/C#Cc1cccc(NS(=O)(=O)c2ccccc2)c1)NO [Oxamflatin]	5.89	5.9	6.57	5.76	6.5	5.88	5.58	6.15	6.23	6.06	6.47	5.96	5.64	5.53	6.22	5.67	5.88	5.74	6.19	6.51
CC(=O)O[C@H]1C(=O)[C@@]2(C)[C@H]([C@H](OC(=O)c3ccccc3)[C@]3(O)C[C@H](OC(=O)[C@H](O)[C@@H](NC(=O)c4ccccc4)c4ccccc4)C(C)=C1C3(C)C)[C@]1(OC(C)=O)CO[C@@H]1C[C@@H]2O [Paclitaxel]	7.97	7.84	7.99	7.97	8.24	7.04	8.37	7.79	8.2	7.74	8.22	8.16	8.29	7.51	8.18	7.71	7.95	7.72	8.14	6.64
Nc1nc2[nH]cc(CCc3ccc(C(=O)N[C@@H](CCC(=O)O)C(=O)O)cc3)c2c(=O)[nH]1 [Pemetrexed]	6.33	< 2.53	< 2.53	6.72	< 2.53	< 2.53	< 2.53	6.19	< 2.53	6.44	< 2.53	< 2.53	< 2.53	< 2.53	< 2.53	< 2.53	< 2.53	4.53	< 2.53	< 2.53
O=S(=O)(CC1CS1)c1ccc(Oc2ccccc2)cc1 (stereo not given) [SB-3CT]	< 4	< 3.78	4.99	< 3.78	4.85	< 3.78	< 3.78	< 3.78	4.33	< 3.78	4.33	5.17	4.02	< 4	4.77	4.03	< 3.78	< 4	< 4	4.75

Reference: the supplement of paper PMC3937590
